Consider seven compounds from US20260015322A1, “DELIVERY OF THERAPEUTIC ALKALOID COMPOUNDS” (priority 2022, published 2026).

A value given as a limit tells only on which side of the number the result lay.

Series [1] in a line: Hydrolysis Assay - Condition 1 (SGF). The conditions noted are these: Condition 1: SGF with pepsin pH 1.5, 37° C., 0.5 mM. It is filed as physicochemical. How it is done:
50 uL of compound (10 mM) in DMSO was diluted into 950 uL of Simulated Gastric Fluid (SGF) with pepsin (pH 1.5) to a final concentration of 0.5 mM. The hydrolysis kinetics were conducted at 37° C. and measured by LCMS at a certain time interval.
(§1) The corresponding LCMS chromatogram were recorded and the conversions were calculated by integration of each peak.
(§2) • 1) LCMS spectra were obtained using Agilent 1200G1956A or SHIMADZU LCMS-2020. • Standard LCMS conditions were as follows (running time 1.55 minutes): • Acidic condition: Mobile Phase A: 0.0375% TFA in water (v/v). Mobile Phase B: 0.01875% TFA in acetonitrile (v/v); Column: Kinetex EVO C18 30*2.1 mm, 5 μm. • Basic condition: Mobile Phase A: 0.025% NH3·H2O in water (v/v). Mobile Phase B: Acetonitrile; Column: Kinetex EVO C18 2.1×30 mm, 5 μm. • 2) Conversion (%)=peak area 1/(peak area 1+peak area 2)*100%, peak area 1 is the integration of hydrolyzed product, peak area 2 is the integration of starting material.

Series [2] can be described thus: Hydrolysis Assay - Condition 2 (DI Water). It is filed as physicochemical. The conditions noted are these: 25° C., 0.5 mM. As for the experimental part:
50 uL of compound (10 mM) in DMSO was diluted into 950 uL of DI water to a final concentration of 0.5 mM. The hydrolysis kinetics were conducted at 25° C. and measured by LCMS at a certain time interval.
as §1, §2

A short description of series [3]: Plasma Stability Assay (Example A2), mouse plasma. It is filed as in vitro ADME. The conditions noted are these: Mouse Plasma, 37° C., prodrug remaining. How it is done:
(§3) Each test was carried out in duplicate for each time point; 0 min, 15 min, 30 min, 60 min, 120, 240 min. […]

Series [4] in a line: Plasma Stability Assay (Example A2), human plasma. The conditions noted are these: 37° C., prodrug remaining. It is filed as in vitro ADME. How it is done: as §3
The nature of series [5]: Plasma Stability Assay (Example A3), rat plasma. The format is in vitro ADME. The conditions noted are these: 10 μM, 37° C., prodrug remaining. The source says:
(§4) The data is represented in the table below.

A short description of series [6]: Plasma Stability Assay (Example A3), human plasma. It is filed as in vitro ADME. The conditions noted are these: 10 μM, 37° C., prodrug remaining.
Source text: as §4

With `COc1ccc([C@@]23CCC(OP(=O)(OCc4ccccc4)OCc4ccccc4)=C[C@@H]2N(C)CC3)cc1OC` [Compound 319, [(3aS,7aS)-3a-(3,4-dimethoxyphenyl)-1-methyl-3,4,5,7a-tetrahydro-2H-indol-6-yl] dibenzyl phosphate], the “Conversion (%)” value in series [1] (1 min) is reported as 2%; in series [1] (5 min), 5%; in series [1] (30 min), 25%; in series [1] (1 h), 26%; in series [1] (4 h), 60%; in series [1] (24 h), 61%. Besides, the “Conversion (%)” value is given as 2% in series [2] (1 min); 4% in series [2] (5 min); 5% in series [2] (30 min); 10% in series [2] (1 h); 20% in series [2] (4 h); 59% in series [2] (24 h).
Consider `COc1ccc([C@@]23CCC(OP(=O)(Oc4ccccc4)Oc4ccccc4)=C[C@@H]2N(C)CC3)cc1OC` [Compound 320, [(3aS,7aS)-3a-(3,4-dimethoxyphenyl)-1-methyl-3,4,5,7a-tetrahydro-2H-indol-6-yl]diphenyl phosphate], for which the “Prodrug (%)” value in series [3] (0 min) stood at 100%; in series [3] (15 min) it was 58.5%; in series [3] (30 min), 46.5%; in series [3] (60 min) it was 30.7%; in series [3] (120 min), 19.4%; in series [3] (240 min), 11.7%. Moreover, the “Prodrug (%)” value in series [4] (0 min) is listed as 100%; in series [4] (15 min), 95.7%; in series [4] (30 min) it was 98.5%; in series [4] (60 min) it was 95.7%; in series [4] (120 min), 98.2%; in series [4] (240 min), 95.3%. For the same compound, the “Conversion (%)” value in series [1] (1 min), in series [1] (5 min), in series [1] (30 min), in series [1] (1 h), in series [1] (4 h) and in series [1] (24 h) was 0% each time. Also, the “Conversion (%)” value in series [2] (1 min), in series [2] (5 min), in series [2] (30 min), in series [2] (1 h), in series [2] (4 h) and in series [2] (24 h) was 0% throughout.
As to `COc1ccc([C@@]23CCC(OC(=O)N(C)C)=C[C@@H]2N(C)CC3)cc1OC` [Compound 324, [(3aS,7aS)-3a-(3,4-dimethoxyphenyl)-1-methyl-3,4,5,7a-tetrahydro-2H-indol-6-yl] N,N-dimethylcarbamate], the “Prodrug (%)” value was determined as 100.0% in series [3] (0 min); 97.4% in series [3] (15 min); 94.4% in series [3] (30 min); 94.9% in series [3] (60 min); 92.6% in series [3] (120 min); 88.9% in series [3] (240 min). Besides, the “Prodrug (%)” value in series [4] (0 min) is 100.0%; in series [4] (15 min), 98.2%; in series [4] (30 min) it was 98.7%; in series [4] (60 min), >99%; in series [4] (120 min) it was >99%; in series [4] (240 min), 96.5%. Moreover, the “Conversion (%)” value in series [1] (1 min), in series [1] (5 min), in series [1] (30 min), in series [1] (1 h), in series [1] (4 h) and in series [1] (24 h) was 0% throughout. Moreover, the “Conversion (%)” value in series [2] (1 min), in series [2] (5 min), in series [2] (30 min), in series [2] (1 h), in series [2] (4 h) and in series [2] (24 h) was 0% in each case.
As for `CCN(C)C(=O)OC1=C[C@@H]2N(C)CC[C@]2(c2ccc(OC)c(OC)c2)CC1` [Compound 326, [(3aS,7aS)-3a-(3,4-dimethoxyphenyl)-1-methyl-3,4,5,7a-tetrahydro-2H-indol-6-yl]N-ethyl-N-methyl-carbamate], the “Prodrug (%)” value is on record as 100.0% in series [3] (0 min); >99% in series [3] (15 min); 96.6% in series [3] (30 min); >99% in series [3] (60 min); >99% in series [3] (120 min); 98.5% in series [3] (240 min). In addition, the “Prodrug (%)” value was 100.0% in series [4] (0 min); 98.2% in series [4] (15 min); 99.9% in series [4] (30 min); 98.4% in series [4] (60 min); >99% in series [4] (120 min); 93.9% in series [4] (240 min). Also, the “Conversion (%)” value in series [1] (1 min), in series [1] (5 min), in series [1] (30 min), in series [1] (1 h), in series [1] (4 h) and in series [1] (24 h) was 0% throughout. Further, the “Conversion (%)” value in series [2] (1 min), in series [2] (5 min), in series [2] (30 min), in series [2] (1 h), in series [2] (4 h) and in series [2] (24 h) was 0% each time.
As for `COc1ccc([C@@]23CCC(OC(=O)N4CCN(C)CC4)=C[C@@H]2N(C)CC3)cc1OC` [Compound 327, [(3aS,7aS)-3a-(3,4-dimethoxyphenyl)-1-methyl-3,4,5,7a-tetrahydro-2H-indol-6-yl]4-methylpiperazine-1-carboxylate], the “Prodrug (%)” value is listed as 100% in series [3] (0 min); >99% in series [3] (15 min); >99% in series [3] (30 min); >99% in series [3] (60 min); >99% in series [3] (120 min); >99% in series [3] (240 min). Besides, the “Prodrug (%)” value is reported as 100% in series [4] (0 min); >99% in series [4] (15 min); 98.9% in series [4] (30 min); >99% in series [4] (60 min); >99% in series [4] (120 min); 94.4% in series [4] (240 min). For the same compound, the “Conversion (%)” value in series [1] (1 min), in series [1] (5 min), in series [1] (30 min), in series [1] (1 h), in series [1] (4 h) and in series [1] (24 h) was 0% each time. The “Conversion (%)” value in series [2] (1 min), in series [2] (5 min), in series [2] (30 min), in series [2] (1 h), in series [2] (4 h) and in series [2] (24 h) was 0% throughout.
With `COc1ccc([C@@]23CCC(OP(=O)(O)O)=C[C@@H]2N(C)CC3)cc1OC` [Compound 359, [(3aS,7aS)-3a-(3,4-dimethoxyphenyl)-1-methyl-3,4,5,7a-tetrahydro-2H-indol-6-yl] dihydrogen phosphate], the “Prodrug (%)” value in series [3] (0 min) is recorded as 100%; in series [3] (15 min), >99%; in series [3] (30 min), 82.7%; in series [3] (60 min) it was 79.0%; in series [3] (120 min), 50.7%; in series [3] (240 min), 59.1%. The “Prodrug (%)” value in series [4] (0 min) is 100%; in series [4] (15 min), 69.0%; in series [4] (30 min), 65.1%; in series [4] (60 min) it was 50.4%; in series [4] (120 min), 32.8%; in series [4] (240 min), 25.6%.
In the case of `COc1ccc([C@@]23CCC(OP(=O)(O)OCOC(=O)C(C)C)=C[C@@H]2N(C)CC3)cc1OC` [Compound 408, [[(3aS,7aS)-3a-(3,4-dimethoxyphenyl)-1-methyl-3,4,5,7a-tetrahydro-2H-indol-6-yl]oxy-hydroxy-phosphoryl]oxymethyl 2-methylpropanoate], the “Prodrug (%)” value in series [5] (0 min) is on record as 100.0%; in series [5] (10 min), 63.8%; in series [5] (30 min), 29.2%; in series [5] (60 min), 8.2%; in series [5] (120 min) it was 0.8%; in series [5] (240 min) it was 0.0%. Further, the “Prodrug (%)” value in series [6] (0 min) is listed as 100.0%; in series [6] (10 min), 94.2%; in series [6] (30 min), 82.6%; in series [6] (60 min), 69.1%; in series [6] (120 min), 45.4%; in series [6] (240 min), 23.5%.
